Data published in patent publication US11083789B2, “IVIG treatments for Bell's palsy” (InnoMed Technologies, Inc., priority 2019, dated 2021).

Legend:
Bell's Palsy [1] = assay: Example 1: treatment of person suffering from Bell's Palsy; assay type: in vivo, human; details: 60 mg/day prednisone therapy alone, two weeks
Method: The patient, a person was diagnosed by their doctor after claiming they are suffering from unexplained facial weakness. The patient's doctor diagnosed the patient as suffering from Bell's Palsy. […] Two weeks after administration, the patient is co-administered a single dose of IVIG at 2 g/kg and 60 mg prednisone and Bell's Palsy related symptoms the patient suffered from are reduced by 70% within two weeks from the co-administration.

Bell's Palsy [2] = assay: Example 2: treatment of a person suffering from Bell's Palsy; assay type: in vivo, human; details: 60 mg/day prednisone therapy alone for a month
Method: The patient, a person is diagnosed by their doctor as suffering from Bell's Palsy. […] The patient is then administered IVIG at 2 g/kg and 60 mg prednisone. Within three weeks, the Bell's Palsy is resolved by about 80%. The patient is then administered a second dose of IVIG at 2 g/kg and 60 mg. prednisone. Within two weeks, the patient is resolved by about 95%.

Bell's Palsy [3] = details: prednisolone 60 mg per day for 5 days then reduced by 10 mg per day, and 50 mg per day for 10 days; cited from earlier work

Structure (SMILES) | reduction in the symptoms of Bell's Palsy (Bell's Palsy [1]) | resolution of Bell's Palsy (Bell's Palsy [2]) | outcome in patients with Bell's palsy (Bell's Palsy [3]) | time to complete recovery (Bell's Palsy [3])
C[C@]12C=CC(=O)C=C1CC[C@@H]1[C@@H]2C(=O)C[C@@]2(C)[C@H]1CC[C@]2(O)C(=O)CO [prednisone] | no reduction | did not resolve | – | –
C[C@]12C=CC(=O)C=C1CC[C@@H]1[C@@H]2[C@@H](O)C[C@@]2(C)[C@H]1CC[C@]2(O)C(=O)CO [prednisolone] | – | – | improves outcome | shortens the time to complete recovery
